ChEMBL document CHEMBL4813985, “Lead optimization generates selenium-containing miconazole CYP51 inhibitors with improved pharmacological profile for the treatment of fungal infections” (Eur J Med Chem, 2021)
In brackets after ≈: the same amount, converted by molar mass.

How the values were obtained:
Format in all cases: functional
[1] = tested on: Candida albicans; experiment: Antifungal activity against fluconazole-resistant Candida albicans 632 assessed as inhibition of microbial growth after 24 hrs by broth microdilution method
[2] = tested on: Candida albicans; experiment: Antifungal activity against fluconazole-resistant Candida albicans 17# assessed as inhibition of microbial growth after 24 hrs by broth microdilution method
[3] = tested on: Nakaseomyces glabratus; experiment: Antifungal activity against Candida glabrata measured after 24 hrs by broth microdilution assay
[4] = tested on: [Candida] zeylanoides; experiment: Antifungal activity against Candida zeylanoides CMGCC2.3739 measured after 24 hrs by broth microdilution assay; conditions: Dujonia zeylanoides
[5] = tested on: Aspergillus fumigatus; experiment: Antifungal activity against Aspergillus fumigatus CMGCC3.7795 measured after 72 hrs by broth microdilution assay
[6] = tested on: Candida albicans; experiment: Antifungal activity against fluconazole-resistant Candida albicans 904 assessed as inhibition of microbial growth after 24 hrs by broth microdilution method
[7] = tested on: Cryptococcus neoformans; experiment: Antifungal activity against Cryptococcus neoformans CMGCC2.3161 measured after 72 hrs by broth microdilution assay
[8] = tested on: Candida albicans; experiment: Antifungal activity against Candida albicans CPCC400616 measured after 24 hrs by broth microdilution assay
[9] = tested on: Candida parapsilosis; experiment: Antifungal activity against Candida parapsilosis ATCC 22019 measured after 24 hrs by broth microdilution assay; conditions: Lodderomyces parapsilosis
[10] = tested on: Candida albicans; experiment: Antifungal activity against fluconazole-resistant Candida albicans CaR assessed as inhibition of microbial growth after 24 hrs by broth microdilution method
[11] = tested on: Candida albicans; experiment: Antifungal activity against fluconazole-resistant Candida albicans 901 assessed as inhibition of microbial growth after 24 hrs by broth microdilution method
[12] = tested on: Candida albicans; experiment: Antifungal activity against Candida albicans ATCC SC5314 measured after 24 hrs by broth microdilution assay
[13] = tested on: Pichia kudriavzevii; experiment: Antifungal activity against Candida krusei AS2.1045 measured after 24 hrs by broth microdilution assay

Compound | MIC [1] [µg/mL] | MIC [2] [µg/mL] | MIC [3] [µg/mL] | MIC [4] [µg/mL] | MIC [5] [µg/mL] | MIC [6] [µg/mL] | MIC [7] [µg/mL] | MIC [8] [µg/mL] | MIC [9] [µg/mL] | MIC [10] [µg/mL] | MIC [11] [µg/mL] | MIC [12] [µg/mL] | MIC [13] [µg/mL]
Fc1ccc(C(Cn2cncn2)[Se]Cc2ccc(Cl)cc2Cl)c(F)c1 (stereo unspecified) | > 128 | 64 | 2 (≈ 4.47 µM) | 64 (≈ 143 µM) | 16 (≈ 35.8 µM) | > 128 | 4 (≈ 8.95 µM) | 0.13 (≈ 0.291 µM) | > 128 | > 128 | > 128 | 0.06 (≈ 0.134 µM) | 128 (≈ 286 µM)
Fc1ccc(C(Cn2cncn2)[Se]Cc2ccc(Cl)cc2)c(F)c1 (stereo unspecified) | > 128 | 16 | 0.5 (≈ 1.21 µM) | 4 (≈ 9.69 µM) | 8 (≈ 19.4 µM) | 8 | 4 (≈ 9.69 µM) | 0.13 (≈ 0.315 µM) | 64 (≈ 155 µM) | 128 | 4 | 0.13 (≈ 0.315 µM) | 128 (≈ 310 µM)
Fc1ccc(C[Se]C(Cn2cncn2)c2ccc(Cl)cc2Cl)cc1 (stereo unspecified) | > 128 | > 128 | 4 (≈ 9.32 µM) | 64 (≈ 149 µM) | 16 (≈ 37.3 µM) | > 128 | 8 (≈ 18.6 µM) | 2 (≈ 4.66 µM) | 64 (≈ 149 µM) | > 128 | > 128 | 0.13 (≈ 0.303 µM) | 128 (≈ 298 µM)
Fc1ccc(C[Se]C(Cn2cncn2)c2ccc(F)cc2F)cc1 (stereo unspecified) | > 128 | 32 | 2 (≈ 5.05 µM) | 4 (≈ 10.1 µM) | 8 (≈ 20.2 µM) | 64 | 0.5 (≈ 1.26 µM) | 1 (≈ 2.52 µM) | 32 (≈ 80.8 µM) | 128 | > 128 | 0.25 (≈ 0.631 µM) | 8 (≈ 20.2 µM)
Fc1ccc(C(Cn2cncn2)[Se]Cc2ccccc2)c(F)c1 (stereo unspecified) | > 128 | 32 | 2 (≈ 5.29 µM) | 8 (≈ 21.1 µM) | 8 (≈ 21.1 µM) | 16 | 4 (≈ 10.6 µM) | 0.5 (≈ 1.32 µM) | 16 (≈ 42.3 µM) | 128 | 16 | 0.06 (≈ 0.159 µM) | 4 (≈ 10.6 µM)
Cc1ccc(C[Se]C(Cn2cncn2)c2ccc(Cl)cc2Cl)cc1 (stereo unspecified) | > 128 | > 128 | 2 (≈ 4.7 µM) | 128 (≈ 301 µM) | 16 (≈ 37.6 µM) | > 128 | 32 (≈ 75.3 µM) | 16 (≈ 37.6 µM) | 64 (≈ 151 µM) | > 128 | > 128 | 2 (≈ 4.7 µM) | 64 (≈ 151 µM)
COc1ccc(C[Se]C(Cn2cncn2)c2ccc(Cl)cc2Cl)cc1 (stereo unspecified) | > 128 | 32 | 4 (≈ 9.07 µM) | 32 (≈ 72.5 µM) | 4 (≈ 9.07 µM) | 128 | 16 (≈ 36.3 µM) | 16 (≈ 36.3 µM) | 32 (≈ 72.5 µM) | 128 | 128 | 1 (≈ 2.27 µM) | 64 (≈ 145 µM)
Fc1ccc(C(Cn2cncn2)[Se]Cc2ccccc2Cl)c(F)c1 (stereo unspecified) | 8 | 4 | 2 (≈ 4.85 µM) | 1 (≈ 2.42 µM) | 8 (≈ 19.4 µM) | 2 | 2 (≈ 4.85 µM) | 0.03 (≈ 0.0727 µM) | 0.5 (≈ 1.21 µM) | 32 | 4 | 0.13 (≈ 0.315 µM) | 2 (≈ 4.85 µM)
Clc1ccc(C[Se]C(Cn2cncn2)c2ccc(Cl)cc2Cl)cc1 (stereo unspecified) | > 128 | > 128 | 2 (≈ 4.49 µM) | 128 (≈ 287 µM) | 16 (≈ 35.9 µM) | > 128 | 16 (≈ 35.9 µM) | 16 (≈ 35.9 µM) | 64 (≈ 144 µM) | > 128 | > 128 | 2 (≈ 4.49 µM) | 128 (≈ 287 µM)
Clc1ccc(C[Se]C(Cn2cncn2)c2ccc(Cl)cc2Cl)c(Cl)c1 (stereo unspecified) | > 128 | > 128 | 0.5 (≈ 1.04 µM) | 128 (≈ 267 µM) | 16 (≈ 33.3 µM) | > 128 | 64 (≈ 133 µM) | 0.25 (≈ 0.521 µM) | 64 (≈ 133 µM) | > 128 | > 128 | 0.25 (≈ 0.521 µM) | 128 (≈ 267 µM)
Clc1ccc(C(Cn2cncn2)[Se]Cc2ccccc2Cl)c(Cl)c1 (stereo unspecified) | > 128 | 8 | 4 (≈ 8.98 µM) | 16 (≈ 35.9 µM) | 16 (≈ 35.9 µM) | 32 | 2 (≈ 4.49 µM) | 0.03 (≈ 0.0673 µM) | 8 (≈ 18 µM) | > 128 | > 128 | 0.13 (≈ 0.292 µM) | 0.06 (≈ 0.135 µM)
Clc1ccc(C(Cn2cncn2)[Se]Cc2ccccc2)c(Cl)c1 (stereo unspecified) | > 128 | 64 | 4 (≈ 9.73 µM) | 64 (≈ 156 µM) | 16 (≈ 38.9 µM) | > 128 | 2 (≈ 4.86 µM) | 0.13 (≈ 0.316 µM) | 32 (≈ 77.8 µM) | > 128 | > 128 | 0.13 (≈ 0.316 µM) | 128 (≈ 311 µM)
